Legend:
[1] = system: Human immunodeficiency virus 1; format: functional, organism-based; details: Human immunodeficiency virus 1, MT4, 120 h
[2] = Volume of distribution in Sprague-Dawley rat at 2 mg/kg, iv measured at 5 to 600 min by LC-MS/MS analysis; format: ADME, organism-based; details: in vivo, time 5-600 min
[3] = system: Human immunodeficiency virus 1; assay: Antiviral activity against NNRTI-resistant HIV-1 harboring K103N mutant infected in human MT4 cells assessed as protection against virus-induced cytopathic effect incubated for 5 days by MTT assay; format: functional, organism-based; details: Human immunodeficiency virus 1, MT4, 120 h
[4] = Subacute toxicity in Kunming mouse assessed as effect on body weight at 50 mg/kg, IG administered via gavage every other day and measured after 14 days; format: organism-based; details: in vivo, po, 336 h, time 14 day
[5] = Subacute toxicity in Kunming mouse assessed as histopathological change in liver at 50 mg/kg, IG administered via gavage every other day and measured after 14 days by H&E staining based analysis; format: organism-based; details: in vivo, po, 336 h, time 14 day
[6] = Metabolic stability in human liver microsomes assessed as compound remaining measured after 60 mins in the presence of NADPH by LC-MS/MS analysis; format: ADME, Microsome; details: liver microsomes, read-out: Stability
[7] = AUC (0 to infinity) in Sprague-Dawley rat at 10 mg/kg, po measured at 15 to 720 min by LC-MS/MS analysis; format: ADME, organism-based; parameters: dose 10 mg/kg, time upper 720 min, time lower 15 min, route po; details: in vivo
[8] = Subacute toxicity in Kunming mouse assessed as histopathological change in spleen at 50 mg/kg, IG administered via gavage every other day and measured after 14 days by H&E staining based analysis; format: organism-based; details: in vivo, po, 336 h, time 14 day
[9] = MRT (0 to infinity) in Sprague-Dawley rat at 10 mg/kg, po measured at 15 to 720 min by LC-MS/MS analysis; format: ADME, organism-based; details: in vivo, time 15-720 min
[10] = Acute toxicity in Kunming mouse assessed as effect on animal death at 1000 mg/kg, IG administered as single dose and measured after 7 days; format: organism-based; details: in vivo, po, 168 h, time 7 day
[11] = Subacute toxicity in Kunming mouse assessed as histopathological change in kidney at 50 mg/kg, IG administered via gavage every other day and measured after 14 days by H&E staining based analysis; format: organism-based; details: in vivo, po, 336 h, time 14 day
[12] = Subacute toxicity in Kunming mouse assessed as animal death at 50 mg/kg, IG administered via gavage every other day and measured after 14 days; format: organism-based; details: in vivo, po, 336 h, time 14 day
[13] = Acute toxicity in Kunming mouse assessed as effect on dyspnea at 1000 mg/kg, IG administered as single dose and measured after 7 days; format: organism-based; details: in vivo, po, 168 h, time 7 day
[14] = system: Human immunodeficiency virus 1; assay: Antiviral activity against NNRTI-resistant HIV-1 harboring L100I mutant infected in human MT4 cells assessed as protection against virus-induced cytopathic effect incubated for 5 days by MTT assay; format: functional, organism-based; details: Human immunodeficiency virus 1, MT4, 120 h
[15] = system: Human immunodeficiency virus 1; assay: Antiviral activity against NNRTI-resistant HIV-1 harboring E138K mutant infected in human MT4 cells assessed as protection against virus-induced cytopathic effect incubated for 5 days by MTT assay; format: functional, organism-based; details: Human immunodeficiency virus 1, MT4, 120 h
[16] = Subacute toxicity in Kunming mouse assessed as anorexia at 50 mg/kg, IG administered via gavage every other day and measured after 14 days; format: organism-based; details: in vivo, po, 336 h, time 14 day
[17] = system: Human immunodeficiency virus 1; assay: Antiviral activity against NNRTI-resistant HIV-1 harboring F227L and V106A double mutant infected in human MT4 cells assessed as protection against virus-induced cytopathic effect incubated for 5 days by MTT assay; format: functional, organism-based; details: Human immunodeficiency virus 1, MT4, 120 h
[18] = Subacute toxicity in Kunming mouse assessed as histopathological change in lung at 50 mg/kg, IG administered via gavage every other day and measured after 14 days by H&E staining based analysis; format: organism-based; details: in vivo, po, 336 h, time 14 day
[19] = Acute toxicity in Kunming mouse assessed as effect on body weight at 1000 mg/kg, IG administered as single dose and measured after 7 days; format: organism-based; details: in vivo, po, 168 h, time 7 day
[20] = system: Human immunodeficiency virus 1; format: functional, organism-based; details: Human immunodeficiency virus 1, MT4, 120 h; remark: listed apart in the source
[21] = Cmax in Sprague-Dawley rat at 10 mg/kg, po measured at 15 to 720 min by LC-MS/MS analysis; format: ADME, organism-based; parameters: dose 10 mg/kg, time 15-720 min, route po; details: in vivo
[22] = Metabolic stability in human plasma assessed as compound remaining incubated for 120 mins by LC-MS/MS analysis; format: ADME, cell-free; details: read-out: Stability
[23] = Half-life in Sprague-Dawley rat at 2 mg/kg, iv measured at 5 to 600 min by LC-MS/MS analysis; format: ADME, organism-based; details: in vivo, time 5-600 min
[24] = Half-life in Sprague-Dawley rat at 10 mg/kg, po measured at 15 to 720 min by LC-MS/MS analysis; format: ADME, organism-based; details: in vivo, time 15-720 min
[25] = Acute toxicity in Kunming mouse assessed as effect on alopecia at 1000 mg/kg, IG administered as single dose and measured after 7 days; format: organism-based; details: in vivo, po, 168 h, time 7 day
[26] = AUC(0 to last) in Sprague-Dawley rat at 2 mg/kg, iv measured at 5 to 600 min by LC-MS/MS analysis; format: ADME, organism-based; parameters: dose 2 mg/kg, time upper 600 min, time lower 5 min, route iv; details: in vivo
[27] = system: Human immunodeficiency virus 1; format: functional, organism-based; details: Human immunodeficiency virus 1, MT4, 120 h; remark: listed apart in the source
[28] = Acute toxicity in Kunming mouse upto 1000 mg/kg, IG administered as single dose and measured after 7 days; format: organism-based; details: in vivo, po, 168 h, time 7 day
[29] = Subacute toxicity in Kunming mouse assessed as at 50 mg/kg, po administered every other day and measured after 14 days; format: organism-based; details: in vivo, 336 h, time 14 day
[30] = Acute toxicity in Kunming mouse assessed as effect on anorexia at 1000 mg/kg, IG administered as single dose and measured after 7 days; format: organism-based; details: in vivo, po, 168 h, time 7 day
[31] = Subacute toxicity in Kunming mouse assessed as dyspnoea at 50 mg/kg, IG administered via gavage every other day and measured after 14 days; format: organism-based; details: in vivo, po, 336 h, time 14 day
[32] = Metabolic stability in human liver assessed as intrinsic clearance incubated for 60 mins in the presence of NADPH by LC-MS/MS analysis; format: ADME, tissue-based; details: read-out: CLH
[33] = system: Human immunodeficiency virus 1; assay: microbe, parasite or virus in culture; details: Human immunodeficiency virus 1, IIIB, MT4, 120 h
Description: Antiviral activity against wild type HIV-1 IIIB infected in human MT4 cells assessed as protection against virus-induced cytopathic effect incubated for 5 days by MTT assay

[34] = Acute toxicity in Kunming mouse assessed as effect on lethargy at 1000 mg/kg, IG administered as single dose and measured after 7 days; format: organism-based; details: in vivo, po, 168 h, time 7 day
[35] = Tmax in Sprague-Dawley rat at 10 mg/kg, po measured at 15 to 720 min by LC-MS/MS analysis; format: ADME, organism-based; details: in vivo, time 15-720 min
[36] = AUC (0 to last) in Sprague-Dawley rat at 10 mg/kg, po measured at 15 to 720 min by LC-MS/MS analysis; format: ADME, organism-based; parameters: time upper 720 min, time lower 15 min, dose 10 mg/kg, route po; details: in vivo
[37] = Acute toxicity in Kunming mouse assessed as tolerance at 1000 mg/kg, IG administered as single dose and measured after 7 days; format: organism-based; details: in vivo, po, 168 h, time 7 day
[38] = Subacute toxicity in Kunming mouse assessed as lethargy at 50 mg/kg, IG administered via gavage every other day and measured after 14 days; format: organism-based; details: in vivo, po, 336 h, time 14 day
[39] = MRT (0 to last) in Sprague-Dawley rat at 2 mg/kg, iv measured at 5 to 600 min by LC-MS/MS analysis; format: ADME, organism-based; details: in vivo, time 5-600 min
[40] = Clearance in Sprague-Dawley rat at 2 mg/kg, iv measured at 5 to 600 min by LC-MS/MS analysis; format: ADME, organism-based; details: in vivo, time 5-600 min
[41] = AUC(0 to infinity) in Sprague-Dawley rat at 2 mg/kg, iv measured at 5 to 600 min by LC-MS/MS analysis; format: ADME, organism-based; parameters: time 5-600 min, dose 2 mg/kg, route iv; details: in vivo
[42] = MRT (0 to infinity) in Sprague-Dawley rat at 2 mg/kg, iv measured at 5 to 600 min by LC-MS/MS analysis; format: ADME, organism-based; details: in vivo, time 5-600 min
[43] = Cytotoxicity against human MT4 cells assessed as reduction in cell viability incubated for 5 days by MTT assay; format: toxicity, cell-based; details: time 5 day
[44] = Subacute toxicity in Kunming mouse assessed as alopecia at 50 mg/kg, IG administered via gavage every other day and measured after 14 days; format: organism-based; details: in vivo, po, 336 h, time 14 day
[45] = Metabolic stability in human plasma assessed as half-life incubated for 120 mins by LC-MS/MS analysis; format: ADME, cell-free
[46] = Subacute toxicity in Kunming mouse assessed as histopathological change in heart at 50 mg/kg, IG administered via gavage every other day and measured after 14 days by H&E staining based analysis; format: organism-based; details: in vivo, po, 336 h, time 14 day
[47] = Metabolic stability in human liver microsomes assessed as intrinsic clearance incubated for 60 mins in the presence of NADPH by LC-MS/MS analysis; details: liver microsomes
[48] = Metabolic stability in human liver microsomes assessed as half-life incubated for 60 mins in the presence of NADPH by LC-MS/MS analysis; format: ADME, Microsome; details: liver microsomes
[49] = target: Human immunodeficiency virus type 1 reverse transcriptase (Human immunodeficiency virus 1, UniProt Q72547); assay: Inhibition of HIV-1 reverse transcriptase assessed as assessed as reduction of biotin-dUTP incorporation into […] incubated for 1 hrs by ELISA analysis

SMILES: CCC(=O)N1CCc2nc(Nc3ccc(C#N)cc3)nc(Oc3c(C)cc(C#N)cc3C)c2C1
- EC50 [1]: 0.0149 µM
- Vd [2]: 0.771 L/kg
- EC50 [3]: 0.00188 µM
- Activity [4]: Non-Toxic
- Activity [5]: Non-Toxic
- remaining at 1 h [6]: 1.6%
- AUC(0-inf) [7]: 23.4 ng·h/mL
- Activity [8]: Non-Toxic
- MRT inf [9]: 214 min
- Activity [10]: Non-Toxic
- Activity [11]: Non-Toxic
- Activity [12]: Non-Toxic
- Activity [13]: Non-Toxic
- EC50 [14]: 0.0146 µM
- EC50 [15]: 0.011 µM
- Activity [16]: Non-Toxic
- EC50 [17]: 0.0388 µM
- Activity [18]: Non-Toxic
- Activity [19]: Non-Toxic
- EC50 [20]: 0.0109 µM
- Cmax [21]: 7.71 ng/mL
- remaining at 2 h [22]: 97.1%
- half-life [23]: 56.5 min
- half-life [24]: 142 min
- Activity [25]: Non-Toxic
- AUC(0-t) [26]: 1730 ng·h/mL
- EC50 [27]: 0.031 µM
- Activity [28]: Non-Toxic
- Activity [29]: Non-Toxic
- Activity [30]: Non-Toxic
- Activity [31]: Non-Toxic
- CLint scaled [32]: 125 mL/min/kg
- EC50 [33]: 0.00271 µM
- Activity [34]: Non-Toxic
- Tmax [35]: 30 min
- AUC(0-t) [36]: 16 ng·h/mL
- Activity [37]: Non-Toxic
- Activity [38]: Non-Toxic
- MRT last [39]: 38.9 min
- clearance [40]: 19.4 mL/min/kg
- AUC(0-inf) [41]: 1740 ng·h/mL
- MRT inf [42]: 39.8 min
- CC50 at 120 h [43]: 10.8 µM
- Activity [44]: Non-Toxic
- half-life [45]: > 289 min
- Activity [46]: Non-Toxic
- microsomal CLint at 1 h [47]: 138 µL/min/mg
- half-life [48]: 10 min
- IC50 [49]: 0.07 µM

Reference: ChEMBL document CHEMBL5331107 (J Med Chem, 2023)
